Results published in PubChem BioAssay AID328 (DTP/NCI, 2004).
Values joined by “and” are separate entries in the source; they are usually repeats but may differ in a detail not shown here. Identical values can stand only once. Toxic doses and inconclusive results are not listed.

System: BDF1 mice, P388 leukemia ip, median survival T/C
Test: NCI In Vivo Anticancer Drug Screen. Data for tumor model P388 Leukemia (intraperitoneal) in B6D2F1 (BDF1) mice
Conditions: endpoint: median survival time, higher = longer survival
In short: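 Survival ratio, drug arm over vehicle arm, in mice with a transplanted tumour.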

[1] = dose: 100.0 mg/kg/injection, schedule: Q01DX009 (ip), vehicle: saline
[2] = dose: 100.0 mg/kg/injection, schedule: Q04DX003 (ip), vehicle: saline
[3] = dose: 200.0 mg/kg/injection, schedule: Q01DX009 (ip), vehicle: saline
[4] = dose: 200.0 mg/kg/injection, schedule: Q04DX003 (ip), vehicle: saline
[5] = dose: 400.0 mg/kg/injection, schedule: Q01DX009 (ip), vehicle: saline
[6] = dose: 400.0 mg/kg/injection, schedule: Q04DX003 (ip), vehicle: saline

C=C1CC2(CCC(C(C)(C)C)CC2)OC1=O (stereo not given)
T/C (dose: 100.0 mg/kg/injection, schedule: Q04DX002 (ip), vehicle: saline with Tween-80): 105 % of control
T/C (dose: 200.0 mg/kg/injection, schedule: Q04DX002 (ip), vehicle: saline with Tween-80): 108 % of control
T/C (dose: 400.0 mg/kg/injection, schedule: Q04DX002 (ip), vehicle: saline with Tween-80): 97 % of control

CNC1=CC(=O)C1(F)F
T/C (dose: 25.0 mg/kg/injection, schedule: Q01DX001 (ip), vehicle: saline sonified): 100 % of control
T/C (dose: 50.0 mg/kg/injection, schedule: Q01DX001 (ip), vehicle: saline sonified): 109 % of control
T/C (dose: 100.0 mg/kg/injection, schedule: Q01DX001 (ip), vehicle: saline sonified): 100 % of control

O=[n+]1c2c(n([O-])c3ccccc31)-c1cccc3cccc-2c13
T/C (dose: 25.0 mg/kg/injection, schedule: Q01DX010 (ip), vehicle: saline): 95 % of control
T/C (dose: 50.0 mg/kg/injection, schedule: Q01DX010 (ip), vehicle: saline): 91 % of control
T/C (dose: 100.0 mg/kg/injection, schedule: Q01DX010 (ip), vehicle: saline): 91 % of control

C=CCOCCO
T/C [1]: 112 % of control
T/C [2]: 91 % of control
T/C [3]: 112 % of control
T/C [4]: 95 % of control
T/C [5]: 100 % of control
T/C [6]: 108 % of control

O=C(Nc1cccc(Cl)c1)Nc1ccccc1Cl
T/C (dose: 100.0 mg/kg/injection, schedule: Q04DX003 (ip), vehicle: saline with Tween-80): 97 % of control
T/C (dose: 200.0 mg/kg/injection, schedule: Q04DX003 (ip), vehicle: saline with Tween-80): 108 % of control
T/C (dose: 400.0 mg/kg/injection, schedule: Q04DX003 (ip), vehicle: saline with Tween-80): 91 % of control

CC1(C)COP(OCC(F)(F)F)OC1
T/C (dose: 25.0 mg/kg/injection, schedule: Q01DX005 (ip), vehicle: saline with Tween-80): 92 % of control
T/C (dose: 50.0 mg/kg/injection, schedule: Q01DX005 (ip), vehicle: saline with Tween-80): 94 % of control
T/C (dose: 100.0 mg/kg/injection, schedule: Q01DX005 (ip), vehicle: saline with Tween-80): 94 % of control

CC1CCc2c(ccc3ccccc23)C1=O (stereo not given)
T/C (dose: 100.0 mg/kg/injection, schedule: Q01DX009 (ip), vehicle: gum acacia): 92 % of control
T/C (dose: 100.0 mg/kg/injection, schedule: Q04DX003 (ip), vehicle: gum acacia): 107 % of control
T/C (dose: 200.0 mg/kg/injection, schedule: Q01DX009 (ip), vehicle: gum acacia): 100 % of control
T/C (dose: 200.0 mg/kg/injection, schedule: Q04DX003 (ip), vehicle: gum acacia): 103 % of control
T/C (dose: 400.0 mg/kg/injection, schedule: Q01DX009 (ip), vehicle: gum acacia): 100 % of control
T/C (dose: 400.0 mg/kg/injection, schedule: Q04DX003 (ip), vehicle: gum acacia): 89 % of control

S=c1nc[nH]c2nc[nH]c12
T/C (dose: 12.5 mg/kg/injection, schedule: Q01DX009 (ip), vehicle: saline with Tween-80): 104 % of control
T/C (dose: 15.0 mg/kg/injection, schedule: Q01DX010 (ip), vehicle: saline): 150 % of control
T/C (dose: 20.0 mg/kg/injection, schedule: Q01DX010 (ip), vehicle: saline): 100 % of control
T/C (dose: 20.0 mg/kg/injection, schedule: Q01DX010 (ip), vehicle: water): 110 % of control
T/C (dose: 25.0 mg/kg/injection, schedule: Q01DX009 (ip), vehicle: saline with Tween-80): 113 % of control
T/C (dose: 26.0 mg/kg/injection, schedule: Q01DX009 (ip), vehicle: alkali diluted with saline): 104 % of control and 107 % of control
T/C (dose: 30.0 mg/kg/injection, schedule: Q01DX010 (ip), vehicle: saline): 90 % of control and 104 % of control
T/C (dose: 40.0 mg/kg/injection, schedule: Q01DX010 (ip), vehicle: saline): 100 % of control
T/C (dose: 40.0 mg/kg/injection, schedule: Q01DX010 (ip), vehicle: water): 110 % of control
T/C (dose: 60.0 mg/kg/injection, schedule: Q01DX010 (ip), vehicle: water): 110 % of control
T/C (dose: 72.0 mg/kg/injection, schedule: Q01DX009 (ip), vehicle: alkali diluted with saline): 117 % of control
T/C (dose: 80.0 mg/kg/injection, schedule: Q01DX010 (ip), vehicle: saline): 104 % of control
T/C (dose: 90.0 mg/kg/injection, schedule: Q01DX009 (ip), vehicle: alkali diluted with saline): 107 % of control and 111 % of control
T/C (dose: 120.0 mg/kg/injection, schedule: Q01DX009 (ip), vehicle: alkali diluted with saline): 103 % of control
T/C (dose: 120.0 mg/kg/injection, schedule: Q01DX010 (ip), vehicle: saline): 109 % of control
T/C (dose: 160.0 mg/kg/injection, schedule: Q01DX010 (ip), vehicle: saline): 90 % of control

CC(=O)OCc1cc2cc(O)ccc2nc1C
T/C (dose: 25.0 mg/kg/injection, schedule: Q01DX009 (ip), vehicle: saline): 98 % of control
T/C (dose: 50.0 mg/kg/injection, schedule: Q01DX009 (ip), vehicle: saline): 107 % of control
T/C (dose: 50.0 mg/kg/injection, schedule: Q04DX003 (ip), vehicle: saline): 111 % of control
T/C [1]: 101 % of control
T/C [2]: 110 % of control and 115 % of control
T/C [3]: 116 % of control
T/C [4]: 92 % of control and 110 % of control
T/C [5]: 91 % of control
T/C [6]: 97 % of control and 104 % of control and 116 % of control

COC1(c2ccccc2)CN(Cc2ccccc2)CCO1 (stereo not given)
T/C (dose: 50.0 mg/kg/injection, schedule: Q01DX009 (ip), vehicle: Klucel (hydroxypropylcellulose) (HPC)): 113 % of control
T/C (dose: 100.0 mg/kg/injection, schedule: Q01DX009 (ip), vehicle: Klucel (hydroxypropylcellulose) (HPC)): 118 % of control
T/C (dose: 100.0 mg/kg/injection, schedule: Q04DX003 (ip), vehicle: Klucel (hydroxypropylcellulose) (HPC)): 113 % of control
T/C (dose: 200.0 mg/kg/injection, schedule: Q01DX009 (ip), vehicle: Klucel (hydroxypropylcellulose) (HPC)): 95 % of control
T/C (dose: 200.0 mg/kg/injection, schedule: Q04DX003 (ip), vehicle: Klucel (hydroxypropylcellulose) (HPC)): 113 % of control

COc1ccc(/C(=C\S(C)(=O)=O)c2cccs2)cc1
T/C (dose: 50.0 mg/kg/injection, schedule: Q01DX009 (ip), vehicle: saline with Tween-80): 88 % of control
T/C (dose: 100.0 mg/kg/injection, schedule: Q01DX009 (ip), vehicle: saline with Tween-80): 91 % of control
T/C (dose: 200.0 mg/kg/injection, schedule: Q01DX009 (ip), vehicle: saline with Tween-80): 105 % of control
